# What was measured:
# P388 [1] = experiment: In vivo cytotoxicity against mouse P388 cells at 0.63 mg/kg relative to control; assay type: functional
# P388 [2] = experiment: In vivo cytotoxicity against mouse P388 cells at 1.25 mg/kg relative to control; assay type: functional
SMILES,T/C (P388 [1]),T/C (P388 [2])
COC(=O)[C@]12OC[C@]34[C@H]([C@@H](O)[C@@H]1O)[C@@]1(C)C=C5OC(=O)C=C5[C@@H](C)[C@@H]1C[C@H]3OC(=O)[C@H](O)[C@@H]24 [DEACETYLSERGEOLIDE],150%,–
COC(=O)[C@]12OC[C@]34[C@H]([C@@H](O)[C@@H]1O)[C@@]1(C)C=C5OC(=O)C=C5[C@@H](C)[C@@H]1C[C@H]3OC(=O)[C@H](OC(C)=O)[C@@H]24 [SERGEOLIDE],–,169%

# Reference: ChEMBL document CHEMBL1151632, “15-Deacetylsergeolide, a potent antileukemic quassinoid from Picrolemma pseudocoffea” (1984)
